Where two headings read alike, the source gives them in different places.
How the values were obtained:
[1] = 300 mg I/ml, 37° C.; ^+ Ref. Handbook of Experimental Pharmacology, Vol. 73; cited from earlier work
Rats (female Lewis) = assay: i.v. LD50 in rats (systemic toxicity); format: in vivo; conditions: 300 mg I/ml, 37° C., injection rate 5 ml/min
Method: (§1) All compounds were tested for stability, solubility, osmolality, viscosity and systemic toxicity, using conventional tests.
(§2) *All at 300 mg I/ml concentration and 37° C. Injection rates 1
(§3) ml/min in mice and 5 ml/min in rats.
(§4) ^° Ref. Salvesen, S. in Acta Radiol. Suppl. 362, p. 73, 1980.

Mice (female CD-1) = assay: i.v. LD50 in mice (systemic toxicity); format: in vivo; conditions: 300 mg I/ml, 37° C., injection rate 1 ml/min
Method: as §1, §2, §3, §4

[2] = 300 mg I/ml, 37° C.; ^+ Ref. Handbook of Experimental Pharmacology, Vol. 73; cited from earlier work; remark: listed apart in the source
[3] = Osmolality at 300 mg I/ml, 37° C.; format: physicochemical; conditions: for Osmolality: 300 mg I/ml, 37° C.; for osmolality versus existing compounds: existing compounds serving as control
Method: as §1, §2

[4] = Viscosity at 300 mg I/ml, 37° C.; format: physicochemical
Method: as §1, §2

[5] = stability, solubility, osmolality, viscosity and systemic toxicity, conventional tests (overall statement); conditions: existing compounds serving as control
Method: as §1

[6] = must be dispensed in lyophilized form and reconstituted prior to use; cited from earlier work

Row | SMILES | Osmolality [1] [mOsm/kg] | i.v. LD50 (Rats (female Lewis)) | i.v. LD50 (Mice (female CD-1)) | Viscosity [2] [cps] | Osmolality [3] [mOsm/kg] | osmolality versus existing compounds [3] | Viscosity [4] [cps] | stability, solubility, viscosity and systemic toxicity (other categories) versus existing compounds [5] | hydrolytic stability [6]
1 | C[C@H](O)C(=O)Nc1c(I)c(C(=O)NC(CO)CO)c(I)c(C(=O)NC(CO)CO)c1I [Iopamidol] | 619 | 12.2-13 gI/kg | 17-18.5 gI/kg | 4.5 |  |  |  |  | 
2 | CC(=O)N(CC(O)CO)c1c(I)c(C(=O)NCC(O)CO)c(I)c(C(=O)NCC(O)CO)c1I (stereo not shown) [Iohexol] | 690 | 13.5-15 gI/kg | 17.9 gI/kg | 6.1 |  |  |  |  | 
3 | COCC(=O)Nc1c(I)c(C(=O)NCC(O)CO)c(I)c(C(=O)N(C)CC(O)CO)c1I (stereo not shown) [Iopromide] | 607 | 10-11.5 gI/kg | 11.5-13.0 gI/kg | 4.8 |  |  |  |  | 
4 | CNC(=O)c1c(I)c(C(=O)N[C@H](CO)[C@@H](O)CO)c(I)c(N(CC(O)CO)C(C)=O)c1I (relative stereo) [XVI, 5-(N-2,3-Dihydroxypropylacetamido)-2,4,6-triido-N-methyl-N'-(1,3,4-trihydroxy-erythro-but-2-yl)-isophthalamide] |  | 13.5-14 gI/kg | 12-13 gI/kg |  | 513 | substantially reduced osmolality | 5.2 | comparable or superior properties in the other categories | 
5 | CC(=O)N(CC(O)CO)c1c(I)c(C(=O)NCCO)c(I)c(C(=O)NCC(O)CO)c1I (stereo not shown) [VIII, 5-(N-2,3-Dihydroxypropylacetamido)-2,4,6-triiodo-N-(2,3-dihydroxypropyl)-N'-(2-hydroxyethyl)isophthalamide] |  | 14-16.5 gI/kg | 18.8 gI/kg |  | 524 | substantially reduced osmolality | 4.9 | comparable or superior properties in the other categories | 
6 | CC(=O)Nc1c(I)c(C(=O)N[C@H]2C(O)O[C@H](CO)[C@@H](O)[C@@H]2O)c(I)c(N(C)C(C)=O)c1I (stereo partly shown) [Metrizamide] |  |  |  |  |  |  |  |  | hydrolytic instability
